Source: patent US20190134005A1 (BioMarin Pharmaceutical Inc., priority 2016, published 2019)
pIC50: −log10 of the molar value.

molecular target: T1, human CGT (Homo sapiens, UniProt Q16880); experiment: CGT Enzyme Assay (Biological Example 2, RapidFire/MS/MS method with 0.01% Tween 80 added); format: biochemical; conditions: enzymatic assay, CHO/CGT lysate
T1 sequence (Q16880 21-541): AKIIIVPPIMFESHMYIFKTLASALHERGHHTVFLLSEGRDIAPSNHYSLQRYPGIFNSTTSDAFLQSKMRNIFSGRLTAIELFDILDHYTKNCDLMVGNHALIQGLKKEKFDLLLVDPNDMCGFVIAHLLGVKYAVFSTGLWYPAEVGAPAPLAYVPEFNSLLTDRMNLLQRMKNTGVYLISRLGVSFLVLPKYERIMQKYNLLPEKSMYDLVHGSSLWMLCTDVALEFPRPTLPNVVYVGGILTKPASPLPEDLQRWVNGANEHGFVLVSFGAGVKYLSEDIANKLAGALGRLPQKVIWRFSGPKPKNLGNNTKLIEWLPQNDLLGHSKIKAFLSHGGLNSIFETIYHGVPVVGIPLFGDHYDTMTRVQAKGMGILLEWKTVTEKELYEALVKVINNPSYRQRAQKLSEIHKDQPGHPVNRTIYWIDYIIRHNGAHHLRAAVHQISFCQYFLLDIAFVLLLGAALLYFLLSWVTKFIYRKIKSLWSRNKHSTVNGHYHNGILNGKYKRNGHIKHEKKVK
Method: Full-length human CGT cDNA was cloned into the BamH1/Xho1 site of pcDNA3.1 (+) mammalian expression vector (V90-20, Invitrogen, Carlsbad, Calif.) and the plasmid was transfected into Chinese hamster ovary (CHO) cells. Lysate was prepared using M-PER (Mammalian Protein Extraction Reagent, ThermoFisher Scientific, Grand Island, N.Y.) in the presence of a protease inhibitor cocktail (P8340, Sigma, Saint Louis, Mo.). Each 100 mm dish (100% confluent, approximately 1×10^7 cells) was lysed with 250 μL of M-PER containing protease inhibitors. Protein concentration was determined using a Pierce BCA protein assay kit (ThermoFisher Scientific). […] The final concentration of DMSO was 0.5% in both compound-treated and mock-treated samples. Each individual reaction was diluted with 80 μL of methanol:acetronitrile (1:3) containing 5 μM N-docdecanoyl-NBD-galactosylceramide (internal standard) to stop the reaction. 200 μL H2O:acetonitile (1:1) was added to precipitate the protein. After sufficient mixing, the plates were centrifuged at 2469 g for 38 minutes, 200 μl of supernatant was transferred to a LC-MS 96-deep well plate and a second spin was performed at 2469 g for 10 minutes. The final supernatant was injected in triplicate for RapidFire/MS/MS analysis.
The quantitative analysis of C6-NBD-dihydro-ceramide and C6-NBD-dihydro-galactosylceramide was performed on a Rapid Fire 360 high-throughput mass spectrometry system (Agilent Technologies, Palo Alto, Calif.) coupled with a API4000^+ triple quadrupole mass spectrometer (Applied Biosystems, Concord, Ontario, Canada). RapidFire software packages, including RapidFire Control panel, RapidFire UI and RapidFire Integrator (Agilent Technologies), were used to control the RapidFire instrument and to process data. Analyst 1.6.2 software packages (Applied Biosystems) were used to control the MS system and acquire MS data. 10 μL of sample was loaded on a micro-scale C4 solid-phase extraction (SPE) cartridge (Agilent Technologies) and salts were removed using water supplemented with 0.1% formic acid at the flow rate of 1.5 mL/min for 3 sec. C6-NBD-dihydro-ceramide and C6-NBD-dihydro-galactosylceramide were co-eluted into the mass spectrometer using acetonitrile containing 0.1% formic acid at the flow rate of 1.0 mL/min for 3 sec. The total cycle time of one injection was 8 secs. The MS/MS detection was performed in ESI negative mode.
The C6-NBD-dihydro-galactosylceramide reading was normalized first by dividing the peak area of C6-NBD-dihydro-galactosylceramide by the peak area of the internal standard, N-docdecanoyl-NBD-galactosylceramide.

SMILES	pIC50
CC1(C)[C@@H](c2cccc(OC(F)F)c2)N(c2ccc(Cl)cc2)C(=O)N1c1ccc(Cl)cc1 [Example 9-1, (R)-1,3-bis(4-chlorophenyl)-5-(3-(difluoromethoxy)phenyl)-4,4-dimethylimidazolidin-2-one]	4.52 to 5.00
CC1(C)[C@H](c2cccc(OC(F)F)c2)N(c2ccc(Cl)cc2)C(=O)N1c1ccc(Cl)cc1 [Example 9-2, (S)-1,3-bis(4-chlorophenyl)-5-(3-(difluoromethoxy)phenyl)-4,4-dimethylimidazolidin-2-one]	> 6.00
CC1(C)C(c2cccc(OC(F)F)c2)N(c2ccc(Cl)cc2)C(=O)N1c1ccc(Cl)cc1 (stereo not drawn) [Example 9]	> 6.00
CC1(C)[C@@H](c2cccc(C#N)c2)N(c2ccc(Cl)cc2)C(=O)N1c1ccc(Cl)cc1 [Example 10-1, (R)-3-(1,3-bis(4-chlorophenyl)-5,5-dimethyl-2-oxoimidazolidin-4-yl)benzonitrile]	4.52 to 5.00
CC1(C)[C@H](c2cccc(C#N)c2)N(c2ccc(Cl)cc2)C(=O)N1c1ccc(Cl)cc1 [Example 10-2, (S)-3-(1,3-bis(4-chlorophenyl)-5,5-dimethyl-2-oxoimidazolidin-4-yl)benzonitrile]	> 6.00
C[C@@H]1[C@@H](c2cccc(OC(F)(F)F)c2)N(c2ccc(Br)cc2)C(=O)N1c1ccc(Br)cc1 [Example 11-1, (4R,5R)-1,3-bis(4-bromophenyl)-4-methyl-5-(3-(trifluoromethoxy)phenyl)imidazolidin-2-one]	5.00 to 6.00
C[C@H]1[C@H](c2cccc(OC(F)(F)F)c2)N(c2ccc(Br)cc2)C(=O)N1c1ccc(Br)cc1 [Example 11-2, (4S,5S)-1,3-bis(4-bromophenyl)-4-methyl-5-(3-(trifluoromethoxy)phenyl)imidazolidin-2-one]	> 6.00
O=C1N(c2ccc(Cl)cc2)[C@H]2CCC[C@@]2(c2cccc(OC(F)(F)F)c2)N1c1ccc(Cl)cc1 [Example 12-1, (3aS,6aS)-1,3-bis(4-chlorophenyl)-3a-(3-(trifluoromethoxy)phenyl)hexahydrocyclopenta[d]imidazol-2(1H)-one]	5.00 to 6.00
O=C1N(c2ccc(Cl)cc2)[C@@H]2CCC[C@]2(c2cccc(OC(F)(F)F)c2)N1c1ccc(Cl)cc1 [Example 12-2, (3aR,6aR)-1,3-bis(4-chlorophenyl)-3a-(3-(trifluoromethoxy)phenyl)hexahydrocyclopenta[d]imidazol-2(1H)-one]	4.52 to 5.00
O=C1N(c2ccc(Cl)cc2)C2CCCC2(c2cccc(OC(F)(F)F)c2)N1c1ccc(Cl)cc1 (stereo not drawn) [Example 12]	5.00 to 6.00
N#Cc1cccc([C@]23CCCC[C@H]2N(c2ccc(Cl)cc2)C(=O)N3c2ccc(Cl)cc2)c1 [Example 14-1, 3-((3aR,7aR)-1,3-bis(4-chlorophenyl)-2-oxooctahydro-3aH-benzo[d]imidazol-3a-yl)benzonitrile]	5.00 to 6.00
N#Cc1cccc([C@@]23CCCC[C@@H]2N(c2ccc(Cl)cc2)C(=O)N3c2ccc(Cl)cc2)c1 [Example 14-2, 3-((3aS,7aS)-1,3-bis(4-chlorophenyl)-2-oxooctahydro-3aH-benzo[d]imidazol-3a-yl)benzonitrile]	4.52 to 5.00
N#Cc1cccc(C23CCCCC2N(c2ccc(Cl)cc2)C(=O)N3c2ccc(Cl)cc2)c1 (stereo not drawn) [Example 14]	> 6.00
O=C1N(c2ccc(Cl)cc2)C2CCCCC2(c2cccc(OC(F)(F)F)c2)N1c1ccc(Cl)cc1 (stereo not drawn) [Example 15-1, 1,3-bis(4-chlorophenyl)-3a-(3-(trifluoromethoxy)phenyl)octahydro-2H-benzo[d]imidazol-2-one]	4.52 to 5.00
O=C1N(c2ccc(Cl)cc2)[C@H](c2cccc(OC(F)(F)F)c2)C2(CCCC2)N1c1ccc(Cl)cc1 [Example 15-2, (R)-1,3-bis(4-chlorophenyl)-4-(3-(trifluoromethoxy)phenyl)-1,3-diazaspiro[4.4]nonan-2-one]	> 6.00
O=C1N(c2ccc(Cl)cc2)[C@@H](c2cccc(OC(F)(F)F)c2)C2(CCCC2)N1c1ccc(Cl)cc1 [Example 15-3, (S)-1,3-bis(4-chlorophenyl)-4-(3-(trifluoromethoxy)phenyl)-1,3-diazaspiro[4.4]nonan-2-one]	4.52 to 5.00
O=C1N(c2ccc(Cl)cc2)[C@H]2CCC[C@@]2(c2cccc(C(F)F)c2)N1c1ccc(Cl)cc1 [Example 16-1, (3aS,6aS)-1,3-bis(4-chlorophenyl)-3a-(3-(difluoromethyl)phenyl)hexahydrocyclopenta[d]imidazol-2(1H)-one]	4.52 to 5.00
O=C1N(c2ccc(Cl)cc2)[C@@H]2CCC[C@]2(c2cccc(C(F)F)c2)N1c1ccc(Cl)cc1 [Example 16-2, (3aR,6aR)-1,3-bis(4-chlorophenyl)-3a-(3-(difluoromethyl)phenyl)hexahydrocyclopenta[d]imidazol-2(1H)-one]	4.52 to 5.00
CCC1(CC)[C@@H](c2cccc(OC(F)(F)F)c2)N(c2ccc(Cl)cc2)C(=O)N1c1ccc(Cl)cc1 [Example 17-1, (R)-1,3-bis(4-chlorophenyl)-4,4-diethyl-5-(3-(trifluoromethoxy)phenyl)imidazolidin-2-one]	> 6.00
CCC1(CC)[C@H](c2cccc(OC(F)(F)F)c2)N(c2ccc(Cl)cc2)C(=O)N1c1ccc(Cl)cc1 [Example 17-2, (S)-1,3-bis(4-chlorophenyl)-4,4-diethyl-5-(3-(trifluoromethoxy)phenyl)imidazolidin-2-one]	5.00 to 6.00
O=C1N(c2ccc(Cl)cc2)C2CCCC2(c2cccc(O)c2)N1c1ccc(Cl)cc1 (stereo not drawn) [Example 18]	4.52 to 5.00
CC[C@]1(C)[C@@H](c2cccc(OC(F)(F)F)c2)N(c2ccc(Cl)cc2)C(=O)N1c1ccc(Cl)cc1 [Example 19-1, (4R,5R)-1,3-bis(4-chlorophenyl)-4-ethyl-4-methyl-5-(3-(trifluoromethoxy)phenyl)imidazolidin-2-one]	5.00 to 6.00
CC[C@]1(C)[C@H](c2cccc(OC(F)(F)F)c2)N(c2ccc(Cl)cc2)C(=O)N1c1ccc(Cl)cc1 [Example 19-2, (4R,5S)-1,3-bis(4-chlorophenyl)-4-ethyl-4-methyl-5-(3-(trifluoromethoxy)phenyl)imidazolidin-2-one]	> 6.00
CC[C@@]1(C)[C@H](c2cccc(OC(F)(F)F)c2)N(c2ccc(Cl)cc2)C(=O)N1c1ccc(Cl)cc1 [Example 19-3, (4S,5S)-1,3-bis(4-chlorophenyl)-4-ethyl-4-methyl-5-(3-(trifluoromethoxy)phenyl)imidazolidin-2-one]	> 6.00
CC[C@@]1(C)[C@@H](c2cccc(OC(F)(F)F)c2)N(c2ccc(Cl)cc2)C(=O)N1c1ccc(Cl)cc1 [Example 19-4, (4S,5R)-1,3-bis(4-chlorophenyl)-4-ethyl-4-methyl-5-(3-(trifluoromethoxy)phenyl)imidazolidin-2-one]	5.00 to 6.00
CC1(C)[C@@H](c2cccc(OC(F)(F)F)c2)N(c2ccc(C(F)(F)F)cc2)C(=O)N1c1ccc(C(F)(F)F)cc1 [Example 20-1, (R)-4,4-dimethyl-5-(3-(trifluoromethoxy)phenyl)-1,3-bis(4-(trifluoromethyl)phenyl)imidazolidin-2-one]	> 6.00
CC1(C)[C@H](c2cccc(OC(F)(F)F)c2)N(c2ccc(C(F)(F)F)cc2)C(=O)N1c1ccc(C(F)(F)F)cc1 [Example 20-2, (S)-4,4-dimethyl-5-(3-(trifluoromethoxy)phenyl)-1,3-bis(4-(trifluoromethyl)phenyl)imidazolidin-2-one]	4.52 to 5.00
